According to patent US6403602B1 (priority 1997, dated 2002):
“Also recorded” adds a separate entry of the source. Where a name gives a salt, the structure may show the parent alone. Read-outs that look alike come from different tables or passages of the source.

Tests used:
[1] = system: κ2 sites; assay type: binding, guinea pig
[2] = target: T1, kappa1 sites (Cavia porcellus, UniProt P41144); assay: biochemical; assay type: binding, guinea pig
T1 construct: The brains were then homogenized in 50 mM Tris HCl, buffer pH 7.7, using a Polytron; from tissue; host or cells: guinea pig brain homogenate (membrane pellet)

[3] = target: mu opioid receptors (Cavia porcellus, UniProt A0ACM8Q262); assay type: binding, guinea pig; conditions: read-out: Ki μ [^3H]DAMGO
[4] = target: T2, delta receptors (Cavia porcellus, UniProt A0A286XTF2); assay: biochemical; assay type: binding, guinea pig
T2 construct: The brains were then homogenized in 50 mM Tris HCl, buffer pH 7.7, using a Polytron; from tissue; host or cells: guinea pig brain homogenate (membrane pellet)

[5] = target: kappa3 receptors; assay type: binding, guinea pig; conditions: read-out: Ki κ3 [^3H]NalBzoH
[6] = target: T3, κ opioid receptor (Cavia porcellus, UniProt P41144); assay: Antagonist activity (pA2) at κ in the functional assays; assay type: cell-based
T3 construct: from tissue; host or cells: organ-bath tissue, probably guinea pig ileum

[7] = target: T4, δ opioid receptor (Mus musculus, UniProt P32300); assay: Antagonist activity (pA2) at δ in the functional assays; assay type: cell-based
T4 construct: from tissue; host or cells: organ-bath tissue, probably mouse vas deferens

[8] = system: mu receptors; assay type: cell-based, guinea pig
[9] = system: electrically stimulated guinea pig ileum; assay: tissue or blood; assay type: cell-based
[10] = target: T5, kappa receptors (Cavia porcellus, UniProt P41144); assay type: cell-based, guinea pig
T5 construct: The longitudinal muscle with the myenteric plexus attached was gently separated from the underlying circular muscle; from tissue; host or cells: guinea pig ileum longitudinal muscle with myenteric plexus

[11] = system: electrically stimulated mouse vas deferens; assay: tissue or blood; assay type: cell-based; conditions: for inhibition at 100 µM / inhibition at 20 µM: Mus musculus, read-out: Mouse vas deferens maximum inhibition
[12] = system: nociception (tail-flick); assay: Tail-flick test after subcutaneous administration; conditions: rat tail-flick, sc
[13] = target: T6, delta receptors (Mus musculus, UniProt P32300); assay type: cell-based
T6 construct: The vas deferens from Swiss-Webster mice (30-35 g) were prepared as described by Hughes et al; from tissue; host or cells: mouse vas deferens (Swiss-Webster)

[14] = read-out: Ki δ, experiment done with [^3H]DPDPE
[15] = Cavia porcellus, read-out: Guinea Pig Ileum IC50 (nM)

Chain of mu opioid receptors (A0ACM8Q262 1-400): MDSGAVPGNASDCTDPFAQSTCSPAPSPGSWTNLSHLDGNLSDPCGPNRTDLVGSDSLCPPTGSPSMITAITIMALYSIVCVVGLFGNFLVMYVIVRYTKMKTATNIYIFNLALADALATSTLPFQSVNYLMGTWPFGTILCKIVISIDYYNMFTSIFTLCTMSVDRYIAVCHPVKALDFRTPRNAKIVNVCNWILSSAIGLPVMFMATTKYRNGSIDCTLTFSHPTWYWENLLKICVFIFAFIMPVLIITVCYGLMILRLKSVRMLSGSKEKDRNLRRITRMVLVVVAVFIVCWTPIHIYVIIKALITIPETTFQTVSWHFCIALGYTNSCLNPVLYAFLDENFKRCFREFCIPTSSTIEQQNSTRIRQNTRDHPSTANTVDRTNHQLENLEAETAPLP
T2 sequence (A0A286XTF2 1-366): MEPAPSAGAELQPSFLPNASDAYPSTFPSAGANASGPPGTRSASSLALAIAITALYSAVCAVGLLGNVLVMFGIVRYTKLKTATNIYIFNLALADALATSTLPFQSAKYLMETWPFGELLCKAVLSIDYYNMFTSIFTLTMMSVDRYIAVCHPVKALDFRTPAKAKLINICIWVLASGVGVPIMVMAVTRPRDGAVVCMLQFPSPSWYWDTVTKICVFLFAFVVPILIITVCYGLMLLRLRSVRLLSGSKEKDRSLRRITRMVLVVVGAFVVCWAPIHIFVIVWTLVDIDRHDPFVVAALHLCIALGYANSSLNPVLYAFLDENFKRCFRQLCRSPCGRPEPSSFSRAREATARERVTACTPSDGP
T1 sequence (P41144 whole entry): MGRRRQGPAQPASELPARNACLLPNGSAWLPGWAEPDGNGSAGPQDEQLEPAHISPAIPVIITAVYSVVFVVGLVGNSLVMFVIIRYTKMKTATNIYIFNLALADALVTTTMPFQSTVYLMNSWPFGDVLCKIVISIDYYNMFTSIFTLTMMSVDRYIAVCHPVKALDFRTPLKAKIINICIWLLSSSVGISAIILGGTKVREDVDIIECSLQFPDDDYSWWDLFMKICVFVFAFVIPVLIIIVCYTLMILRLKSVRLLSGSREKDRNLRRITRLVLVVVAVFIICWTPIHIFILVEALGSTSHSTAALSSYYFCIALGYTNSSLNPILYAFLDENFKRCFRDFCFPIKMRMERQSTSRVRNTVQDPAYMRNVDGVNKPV
T5 sequence (P41144 whole entry): as above
T3 sequence (P41144 whole entry): as above
T6 sequence (P32300 whole entry): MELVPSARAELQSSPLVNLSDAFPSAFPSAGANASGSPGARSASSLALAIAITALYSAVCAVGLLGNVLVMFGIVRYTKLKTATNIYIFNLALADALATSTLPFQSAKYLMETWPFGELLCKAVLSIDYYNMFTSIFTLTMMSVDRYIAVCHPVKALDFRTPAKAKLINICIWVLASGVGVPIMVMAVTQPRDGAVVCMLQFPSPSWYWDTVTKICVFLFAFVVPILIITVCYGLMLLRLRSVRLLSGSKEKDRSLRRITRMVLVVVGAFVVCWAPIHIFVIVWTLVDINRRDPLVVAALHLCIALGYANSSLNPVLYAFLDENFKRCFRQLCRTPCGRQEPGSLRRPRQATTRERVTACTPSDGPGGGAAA
T4 sequence (P32300 whole entry): as above

O=C1/C(=C/c2ccccc2)C[C@@]2(O)[C@H]3Cc4ccc(O)c5c4[C@@]2(CCN3CC2CC2)[C@H]1O5 [BNTX]
IC50 [1]: 0.823 µM
Ki ([2]; read-out: Ki κ1 [^3H]U69,593): 7.1 nM
Ki [3]: 1.9 nM

C=CCN1CC[C@]23c4c5ccc(O)c4O[C@H]2/C(=N/NC(=O)c2ccccc2)CC[C@@]3(O)[C@H]1C5 [NalBzoH, naloxone benzoylhydrazone]
Ki [4]: 1.4 nM
IC50 [1]: 0.0665 µM
Ki [5]: 0.3 nM
Ki [2]: 0.4 nM
Kb [6]: 17.4 nM
Kb [7]: 17.4 nM

CC1C2Cc3ccc(O)cc3C1(C)CCN2CC1CC1 (single isomer, unassigned; (+)) [(+) Cyclazocine]
Ki [4, 14]: > 10000 nM
IC50 [1]: > 10 µM
Ki [5]: 786 nM
Ki ([2]; read-out: Ki κ1 [^3H]U69,593): 383 nM
Ki [3]: 659 nM

CN1CC[C@]23c4c5ccc(OC(=O)c6ccccc6)c4O[C@H]2[C@@H](OS(=O)(=O)O)C=C[C@H]3[C@H]1C5 [NIDA # 20,273, 3-O-Benzoylmorphine-6-O-sulfate]
Guinea Pig Ileum DR with CTAP [8]: 3.68 ± 0.27
Guinea Pig Ileum Ke of CTAP [8]: 34.92 ± 3.22
Guinea Pig Ileum Ratio (CTAP) [8]: 0.554
Ki [4]: 600 nM
IC50 [1]: > 10 µM
Ki [5]: 513 nM
Guinea pig ileum, result in words [9]: inhibited electrically induced twitches
IC50 [9, 15]: 658 ± 130 nM
Guinea Pig Ileum DR with Nor-BNI [10]: 1.31 ± 0.13
Guinea Pig Ileum Ke of Nor-BNI [10]: 70.73 ± 29.13
Guinea Pig Ileum Ratio (Nor-BNI) [10]: 0.001
inhibition at 100 µM [11]: 29.4%
analgesic activity in words ([12]; dose equimolar to 5 mg/kg morphine, listed as M3B6S): gradual onset of weak analgesia; also recorded: inactive
maximum analgesia, % of maximal analgesia ([12]; equimolar dose, over 4 hours): 27%

Oc1ccc2c3c1O[C@H]1c4oc5ccccc5c4C[C@@]4(O)[C@@H](C2)N(CC2CC2)CC[C@]314 [NTB]
Ki ([4]; read-out: Ki δ [^3H]Cl-DPDPE): 0.06 nM
IC50 [1]: 0.406 µM
Ki [5]: 7.5 nM
Ki ([2]; read-out: Ki κ1 [^3H]U69,593): 10.2 nM
Ki [3]: 6.5 nM

CCCN1CCCC(c2cccc(O)c2)C1 (single isomer, unassigned; (+)) [(+) 3-PPP-HCl]
Ki [4, 14]: > 10000 nM
IC50 [1]: > 10 µM
Ki [5]: 782 nM
Ki ([2]; read-out: Ki κ1 [^3H]U69,593): 388 nM
Ki [3]: 3450 nM

CC[C@@]12CCN(CC3CC3)C(C(=O)c3ccc(O)cc31)[C@@H]2C (single isomer, unassigned; (-)) [(−)EKC]
DR with CTAP [8]: 0.62
Ki ([4]; read-out: Ki δ [^3H]Cl-DPDPE): 2 nM
IC50 [1]: 0.0252 µM
Ki [5]: 3.9 nM
DR with Naltrindole [13]: 0.90
IC50 ([9]; read-out: IC50 (nM), Guinea Pigs Ileum): 0.15 nM
Ki [3]: 0.4 nM
IC50 ([11]; read-out: IC50 (nM), Mouse Vas Deferens): 5.31 nM

CC(C)=CCN1CC[C@]2(C)c3cc(O)ccc3C[C@H]1[C@H]2C [(+) Pentazocine-succinate]
Ki [4, 14]: 3480 nM
IC50 [1]: 5.27 µM
Ki [5]: 420 nM
Ki ([2]; read-out: Ki κ1 [^3H]U69,593): 206 nM
Ki [3]: 595 nM

CCC(=O)Oc1ccc2c3c1O[C@H]1[C@@H](OS(=O)(=O)O)C=C[C@H]4[C@@H](C2)N(C)CC[C@@]341 [NIDA # 20,270, 3-O-Propionylmorphine-6-O-sulfate]
Guinea Pig Ileum Ke of CTAP [8]: 37.58 ± 2.09
Guinea Pig Ileum Ratio (CTAP) [8]: 0.515
Ki [4]: 40 nM
IC50 [1]: > 10 µM
Ki [5]: 19.9 nM
IC50 [9, 15]: 154 ± 48.6 nM
Ki [2]: 252 nM
Guinea Pig Ileum DR with Nor-BNI [10]: 1.26 ± 0.33
Guinea Pig Ileum Ke of Nor-BNI [10]: 40.73
Guinea Pig Ileum Ratio (Nor-BNI) [10]: 0.002
inhibition at 20 µM [11]: 20%

CN1CC[C@]23c4c5ccc(OC(=O)C(C)(C)C)c4O[C@H]2[C@@H](OS(=O)(=O)O)C=C[C@H]3[C@H]1C5 [NIDA # 20,272, 3-O-Pivaloylmorphine-6-O-sulfate]
Guinea Pig Ileum DR with CTAP [8]: 4.50 ± 0.14
Guinea Pig Ileum Ratio (CTAP) [8]: 0.676
Ki [4]: 15.2 nM
IC50 [1]: > 10 µM
Ki [5]: 11.2 nM
IC50 [9, 15]: 69.3 ± 25 nM
Ki [2]: 1940 nM
Guinea Pig Ileum DR with Nor-BNI [10]: 1.13 ± 0.01
Guinea Pig Ileum Ke of Nor-BNI [10]: 154.77 ± 16.8
Guinea Pig Ileum Ratio (Nor-BNI) [10]: 0.0004
inhibition at 20 µM [11]: 26.2%

CC(C)C(=O)Oc1ccc2c3c1O[C@H]1[C@@H](OS(=O)(=O)O)C=C[C@H]4[C@@H](C2)N(C)CC[C@@]341 [NIDA # 20,271, 3-O-Isobutyrylmorphine-6-O-sulfate]
Guinea Pig Ileum DR with CTAP [8]: 9.45 ± 4.31
Guinea Pig Ileum Ke of CTAP [8]: 13.55 ± 6.89
Guinea Pig Ileum Ratio (CTAP) [8]: 1.427
Ki [4]: 584 nM
IC50 [1]: > 10 µM
Ki [5]: 266 nM
IC50 [9, 15]: 1960 nM
Ki [2]: 4560 nM
Guinea Pig Ileum DR with Nor-BNI [10]: 1.38 ± 0.01
Guinea Pig Ileum Ke of Nor-BNI [10]: 53.14 ± 1.30
Guinea Pig Ileum Ratio (Nor-BNI) [10]: 0.001
inhibition at 100 µM [11]: 38%
